Measurements from US20100160438A1, “NOVEL USE OF A NUTRACEUTICAL COMPOSITION IN ANIMAL FEED” (priority 2006, published 2010).

Legend:
[1] = test system: ileo-rectal anastomosed piglets; assay: ileal apparent digestibility of nitrogen, energy and amino acids in ileo-rectal anastomosed piglets; assay type: in vivo, Large White×Landrace×Piétrain piglets; conditions: for ileal apparent lysine digestibility / ileal apparent threonine digestibility: mean ± σ
Experimental: Ten Large White×Landrace×Piétrain piglets were used. The animals were obtained from the GAEC Leclerc, F-68150 Ostheim and were 60 days old at the beginning of the experiment.
Each animal was subjected to an ileo-rectal anastomosis according to the techniques described by Laplace et al. (1994). After surgery piglets were housed individually in stainless-steel metabolic cages in an animal room under controlled temperature (22° C.), humidity (50%), ventilation (1100 m3/h) and lighting (12 hours light/12 hours darkness cycle). […] Meanwhile they were fed ad libitum a vegetal based diet for piglets and had free access to tap water.
During the experimental period, piglets were fed each and alternatively the vegetal based diet supplemented or not with 0.5% benzoic acid.
An indigestible tracer, chromium oxide, was added at a concentration of 0.4% to all the diets in order to measure ileal apparent digestibility.
The experience was composed of 2 periods of 12 days each divided in 10 adaptation days and in 2 ileal content sampling days.
Each animal was fed alternatively with each diet, so that each diet was tested 10 times.
For the digestibility estimations, samples of ileal content were collected daily, during the 2 sampling days, from 8 AM to 3 PM, as soon as they were produced. Immediately after each sampling, the collected contents were weighed and frozen at −80° C. All the daily samples from the same piglet were bulked. Before analysis the samples were freeze dried and grounded to a fine powder. A total of […] samples were obtained for each diet.
The dry matter contents of the freeze-dried samples were determined after drying overnight at 105° C., 20 g of the diets and 15 g of the ileal samples, according to the standard Association of Official Analytical Chemists (AOAC) procedure (1990).
The diets and ileal samples chromium oxide levels were determined by inductively coupled plasma-atomic emission spectrometry (ICP) after mineralization at 350° C. during 20 min with oxidant reagent.
Total energy levels were determined on the freeze-dried diets and ileal contents using a calorimeter IKA C7000.
Total nitrogen concentrations were determined on the freeze-dried diets and ileal contents using a nitrogen analyzer LECO FP-428.
Total amino acids were determined after an acidic hydrolysis on the freeze-dried diets and intestinal contents. Tryptophan analysis was omitted. Cys and Met were analyzed as cysteic acid and methionine sulfone after oxidation with formic acid and hydrogen peroxide followed by an acidic hydrolysis at 110° C. with 6 N HCl. All the other amino acids were analyzed after an acidic hydrolysis at 110° C. with 6 N HCl.
Individual amino acid concentrations were measured after derivation using Waters AccQ.Fluor reagent and quantified by reversed-phase HPLC by fluorescence detection after elution on a Pico.Tag C18 column.
Correcting with the dry matter, the chromium oxide and the diet tested parameter concentrations, all the tested parameter levels of the freeze-dried ileal contents were expressed in % apparent digestibility using the following formula:
[formula] • Ci=parameter concentration (% dry matter) in the ileal content • Cd=parameter concentration (% dry matter) in the diet • Mi=chromium oxide concentration (% dry matter) in the ileal content • Md=chromium oxide concentration (% dry matter) in the diet
For each test group, statistic analysis of the data involved the calculation of the mean and standard deviation of the mean as well as an analysis of variance followed by Student's “t” test to assess the significance of group differences between group A and benzoic acid supplemented group B for a probability of 10% for the amino acids and 5% for nitrogen and energy.

piglets = assay: animal health status controlled daily during the feeding trial; assay type: in vivo, Large White×Landrace×Piétrain piglets; conditions: piglets fed alternately diet with or without 0.5% benzoic acid, 2 periods of 12 days
From the text: The animal health status was controlled daily.
At the beginning of the study all the piglets had recovered from the anesthesia and the surgery. […] All the feedings and all the sampling could be achieved.

[2] = 0.5% benzoic acid in diet vs non-supplemented diet, statistically non-significant (p<0.10)
[3] = 0.5% benzoic acid in diet vs non-supplemented diet, statistically significant (p<0.05)
[4] = 0.5% benzoic acid in diet vs non-supplemented diet, statistically significant (p<0.10)
[5] = piglets, Benzoic acid 0.5% in diet
[6] = piglets, diet supplemented with 0.5% benzoic acid, mean ± SD
[7] = piglets, diet supplemented with 0.5% benzoic acid
[8] = piglets, diet supplemented with 0.5% benzoic acid, listed as Benzoic acid

## O=C(O)c1ccccc1 [benzoic acid]
[1]; [2]
  increase of ileal apparent sulfured amino acids digestibility compared to the control group: 2.9%
  increase of ileal apparent threonine digestibility compared to the control group: 2.7%
[1]; [3]
  increase of ileal apparent energy digestibility compared to the control group: 4.4%
  increase of ileal apparent total nitrogen digestibility compared to the control group: 5.3%
[1]; [4]
  increase of ileal apparent branched chain amino acids digestibility compared to the control group: 2.9%
  increase of ileal apparent essential amino acids digestibility compared to the control group: 2.9%
  increase of ileal apparent lysine digestibility compared to the control group: 3.5%
  increase of ileal apparent total amino acids digestibility compared to the control group: 2.9%
[1]; [5]
  Mean digestibility ± σ, Ala (ileal apparent): 75.3 ± 3.7%
  Mean digestibility ± σ, Arg (ileal apparent): 87.0 ± 1.8%
  Mean digestibility ± σ, Asp + Asn (ileal apparent): 79.1 ± 3.2%
  Mean digestibility ± σ, Cys (ileal apparent): 79.7 ± 4.4%
  Mean digestibility ± σ, Glu + Gln (ileal apparent): 86.7 ± 2.1%
  Mean digestibility ± σ, Gly (ileal apparent): 75.1 ± 4.4%
  Mean digestibility ± σ, His (ileal apparent): 86.4 ± 2.5%
  Mean digestibility ± σ, Hyp (ileal apparent): 41.4 ± 13.4%
  Mean digestibility ± σ, Ile (ileal apparent): 81.5 ± 3.6%
  Mean digestibility ± σ, Leu (ileal apparent): 84.5 ± 2.4%
  Mean digestibility ± σ, Met (ileal apparent): 80.7 ± 3.5%
  Mean digestibility ± σ, Phe (ileal apparent): 84.5 ± 2.3%
  Mean digestibility ± σ, Pro (ileal apparent): 85.8 ± 2.4%
  Mean digestibility ± σ, Ser (ileal apparent): 82.6 ± 2.9%
  Mean digestibility ± σ, Tyr (ileal apparent): 80.8 ± 2.8%
  Mean digestibility ± σ, Val (ileal apparent): 79.5 ± 3.6%
[1]; [6]
  ileal apparent branched chain amino acids digestibility: 82.7±2.8%
  ileal apparent energy digestibility: 72.6±4.7%
  ileal apparent essential amino acids digestibility: 82.7±2.6%
  ileal apparent sulfured amino acids digestibility: 80.1±3.5%
  ileal apparent total amino acids digestibility: 82.0±2.7%
  ileal apparent total nitrogen digestibility: 77.7±3.1%
[1]; [7]
  ileal apparent lysine digestibility: 82.3±2.8%
  ileal apparent threonine digestibility: 78.0±3.9%
[1]; [8]
  ileal apparent lysine digestibility: 82.3 ± 2.8%
  ileal apparent threonine digestibility: 78.0 ± 3.9%
piglets
  symptoms of illness or toxicosis: None of the animals showed during the experimental period, any symptoms of illness or toxicosis
